Test results from ChEMBL document CHEMBL4715697, “Synthesis and biological activity of benzamide DNA minor groove binders” (2016).

How the values were obtained:
A549 = assay: Growth inhibition of human A549/ATCC cells assessed as cell growth at 10 uM incubated for 48 hrs by sulforhodamine B assay relative to control; type: functional; conditions: read-out: Activity
COLO 205 = assay: Growth inhibition of human COLO 205 cells assessed as cell growth at 10 uM incubated for 48 hrs by sulforhodamine B assay relative to control; type: functional; conditions: read-out: Activity
HCT-116 = assay: Growth inhibition of human HCT-116 cells assessed as cell growth at 10 uM incubated for 48 hrs by sulforhodamine B assay relative to control; type: functional; conditions: read-out: Activity
SW-620 = assay: Growth inhibition of human SW-620 cells assessed as cell growth at 10 uM incubated for 48 hrs by sulforhodamine B assay relative to control; type: functional; conditions: read-out: Activity
LOX IMVI = assay: Growth inhibition of human LOX IMVI cells assessed as cell growth at 10 uM incubated for 48 hrs by sulforhodamine B assay relative to control; type: functional; conditions: read-out: Activity
SK-MEL-28 = assay: Growth inhibition of human SK-MEL-28 cells assessed as cell growth at 10 uM incubated for 48 hrs by sulforhodamine B assay relative to control; type: functional; conditions: read-out: Activity
OVCAR-3 = assay: Growth inhibition of human OVCAR-3 cells assessed as cell growth at 10 uM incubated for 48 hrs by sulforhodamine B assay relative to control; type: functional; conditions: read-out: Activity
OVCAR-8 = assay: Growth inhibition of human OVCAR-8 cells assessed as cell growth at 10 uM incubated for 48 hrs by sulforhodamine B assay relative to control; type: functional; conditions: read-out: Activity
SK-OV-3 = assay: Growth inhibition of human SK-OV-3 cells assessed as cell growth at 10 uM incubated for 48 hrs by sulforhodamine B assay relative to control; type: functional; conditions: read-out: Activity
RXF 393 = assay: Growth inhibition of human RXF 393 cells assessed as cell growth at 10 uM incubated for 48 hrs by sulforhodamine B assay relative to control; type: functional; conditions: read-out: Activity
SN12C = assay: Growth inhibition of human SN12C cells assessed as cell growth at 10 uM incubated for 48 hrs by sulforhodamine B assay relative to control; type: functional; conditions: read-out: Activity
MCF7 = assay: Growth inhibition of human MCF7 cells assessed as cell growth at 10 uM incubated for 48 hrs by sulforhodamine B assay relative to control; type: functional; conditions: read-out: Activity
MDA-MB-231 = assay: Growth inhibition of human MDA-MB-231 cells assessed as cell growth at 10 uM incubated for 48 hrs by sulforhodamine B assay relative to control; type: functional; conditions: read-out: Activity
Hs-578T = assay: Growth inhibition of human Hs-578T cells assessed as cell growth at 10 uM incubated for 48 hrs by sulforhodamine B assay relative to control; type: functional; conditions: read-out: Activity
MDA-MB-468 = assay: Growth inhibition of human MDA-MB-468 cells assessed as cell growth at 10 uM incubated for 48 hrs by sulforhodamine B assay relative to control; type: functional; conditions: read-out: Activity
SF-295 = assay: Growth inhibition of human SF-295 cells assessed as cell growth at 10 uM incubated for 48 hrs by sulforhodamine B assay relative to control; type: functional; conditions: read-out: Activity
IGROV-1 = assay: Growth inhibition of human IGROV-1 cells assessed as cell growth at 10 uM incubated for 48 hrs by sulforhodamine B assay relative to control; type: functional; conditions: read-out: Activity
[1] = system: Poly(dA-dT)oligonucleotide; assay: Binding affinity to minor groove of poly(dA:dT) dsDNA (unknown origin) assessed as change in melting temperature by UV-vis spectrophotometry based DNA melting assay; type: nucleic-acid assay
[2] = system: Poly(dA-dT)oligonucleotide; assay: Displacement of ethidium bromide from minor groove of poly(dA:dT) dsDNA (unknown origin) by fluorescence spectrophotometry; type: nucleic-acid assay
OVCAR-4 = assay: Growth inhibition of human OVCAR-4 cells assessed as cell growth at 10 uM incubated for 48 hrs by sulforhodamine B assay relative to control; type: functional; conditions: read-out: Activity
A498 = assay: Growth inhibition of human A498 cells assessed as cell growth at 10 uM incubated for 48 hrs by sulforhodamine B assay relative to control; type: functional; conditions: read-out: Activity

Compound	growth at 10 µM (A549)	growth at 10 µM (COLO 205)	growth at 10 µM (HCT-116)	growth at 10 µM (SW-620)	growth at 10 µM (LOX IMVI)	growth at 10 µM (SK-MEL-28)	growth at 10 µM (OVCAR-3)	growth at 10 µM (OVCAR-8)	growth at 10 µM (SK-OV-3)	growth at 10 µM (RXF 393)	growth at 10 µM (SN12C)	growth at 10 µM (MCF7)	growth at 10 µM (MDA-MB-231)	growth at 10 µM (Hs-578T)	growth at 10 µM (MDA-MB-468)	growth at 10 µM (SF-295)	growth at 10 µM (IGROV-1)	ΔTm [1]	C50 [2]	growth at 10 µM (OVCAR-4)	also measured
CC(=O)Nc1ccc(C(=O)Nc2cc(CO)cc(NC(C)=O)c2)cc1	108%	118%	106%	118%	105%	116%	123%	109%	105%	112%	104%	95.3%	115%	121%	97%						
CC(=O)Nc1cc(CO)cc(NC(=O)c2ccc(NC(=O)CCCN3CCOCC3)cc2)c1	104%	106%	104%	103%	110%	113%	121%	105%	104%	114%	97%	102%	102%	114%	97.8%	150%	126%				
CC(=O)Nc1cc(CCl)cc(NC(=O)c2ccc(C(=O)NCCCN(C)C)cc2)c1	98.5%	111%	103%	108%	95.2%	107%	106%	111%	107%	116%	128%	81.5%	139%	111%	92.9%	97.6%	136%	21.6 °C	506 µM		
CC(=O)Nc1cccc(NC(=O)c2ccc(C(=O)Nc3cc(CCl)cc(NC(C)=O)c3)cc2)c1	118%	108%	116%	114%	110%	115%	128%	108%	113%	114%	102%	102%	115%	114%	82.2%					119%	
CC(=O)Nc1cc(CO)cc(NC(=O)c2ccc(C(=O)Nc3cccc(NC(=O)CCCN(C)C)c3)cc2)c1	108%	76.3%	79%	98.2%	88.1%	85.3%	119%	105%	117%	113%	103%	25.2%	88.6%		83.8%		87.4%	30.7 °C	118 µM	34.8%	
CC(=O)Nc1cccc(NC(=O)c2ccc(C(=O)Nc3cc(CO)cc(NC(C)=O)c3)cc2)c1	108%	111%	105%	104%	103%	111%	126%	106%	103%	106%	106%	93.3%	110%		110%		110%			68.7%	
CC(=O)Nc1cc(CO)cc(NC(=O)c2ccc(C(=O)NCCCN3CCOCC3)cc2)c1	107%	106%	105%	102%	101%	102%	118%	103%	106%	108%	104%	102%	103%		96%		110%			67.9%	
CC(=O)Nc1cc(CO)cc(NC(=O)c2cccc(NC(=O)CCCN3CCOCC3)c2)c1	101%	110%	98.9%	108%	99.8%	115%	145%	107%	104%	105%	101%	105%	104%	114%	92.3%	120%	106%				
CCN(CC)CC(=O)Nc1cccc(C(=O)Nc2cc(CO)cc(NC(C)=O)c2)c1	103%	112%	99.6%	115%	98.7%	112%	126%	115%	104%	102%	112%	88.9%	126%	130%	95.7%	87%	130%	8.7 °C	> 1000 µM		
CC(=O)Nc1cc(CO)cc(NC(=O)c2ccc(C(=O)Nc3cc(CO)cc(NC(C)=O)c3)cc2)c1	108%	109%	98.6%	114%	96.8%	117%	139%	107%	101%	103%	97.4%	97.4%	104%	101%	101%	96.8%	103%				
CC(=O)Nc1cc(CO)cc(NC(=O)c2ccccc2)c1	100%	115%	105%	106%	99%	109%	118%	102%	99.4%	119%	119%	106%	109%	105%	106%	108%	110%			111%	growth at 10 µM (A498): 91.6%
CC(=O)Nc1cc(CO)cc(NC(=O)c2ccc(C(=O)NCCCN(C)C)cc2)c1	107%	114%	104%	107%	97.4%	108%	129%	108%	106%	116%	95.6%	101%	105%	114%	91.2%				> 1000 µM	103%	
CCN(CC)CC(=O)Nc1ccc(C(=O)Nc2cc(CO)cc(NC(C)=O)c2)cc1	95.7%	118%	109%	109%	106%	116%	116%	107%	107%	110%	103%	100%	112%		99.4%	136%	129%	10.2 °C			
